From ChEMBL document CHEMBL3301361, “Experimental in vitro DMPK and physicochemical data on a set of publicly disclosed compounds”
In brackets after ≈: the same amount, converted by molar mass.

Key:
in vitro [1] = settings: SD, HW or BN, rat, plasma
physchem [2] = settings: octan-1-ol/water
in vitro [3] = settings: human, plasma
physchem [4] = settings: pH 7.4 buffer

SMILES	fraction unbound at 5 h (in vitro [1])	logD (physchem [2]; pH 7.4, LogD7.4)	fraction unbound at 5 h (in vitro [3]; PPB)	logD (physchem [2]; pH 7.4)	fraction unbound at 5 h (in vitro [3])	solubility thermodynamic (physchem [4]) [µM]
NC(=O)c1cc(C(N)=O)n(-c2cccc(-c3cc(C(F)(F)F)ccc3C(F)(F)F)c2)n1	0.0568	3.4	0.0328	–	–	–
CN[C@H]1CC[C@@H](c2ccc(Cl)c(Cl)c2)c2ccccc21 [SERTRALINE]	0.02	3.15	0.0146	–	–	–
Cc1ccsc1C(=CCCN1CCC[C@@H](C(=O)O)C1)c1sccc1C [TIAGABINE]	0.0836	1.49	0.051	–	–	–
CCN(CC)S(=O)(=O)c1ccc(-c2cc(C(F)(F)F)ccc2OCC(=O)O)cc1	0.0179	0.67	0.0122	–	–	–
CCn1nc(C)c(C(=O)N[C@@H](C)C(C)(C)C)c1NS(=O)(=O)c1ccc(C)cc1	0.0477	0.95	0.0163	–	–	–
OCCN1CCN(CCCN2c3ccccc3Sc3ccc(C(F)(F)F)cc32)CC1 [FLUPHENAZINE]	0.0119	–	–	3.8	0.0119	–
CN1CCc2cc(Cl)c(O)cc2[C@@H](c2ccccc2)C1 [SCH-23390]	0.17	2.5	0.0801	–	–	–
CCN1CCC[C@H]1CNC(=O)c1cc(Br)cc(OC)c1OC	0.701	1.2	0.54	–	–	–
CC(C)Oc1cc(Nc2nc(N[C@@H](C)c3ccc(F)cn3)nc(OC(CO)CO)c2Cl)n[nH]1	0.173	2.77	0.176	–	–	–
Cc1nc(C)c(-c2ccc([C@H]3CC[C@H](CC(N)=O)CC3)cc2)nc1C(N)=O	0.0556	2.7	0.129	–	–	–
COc1cc(C)c(S(=O)(=O)N(C)CCOCC(=O)N2CCC(C3CCN(C)CC3)CC2)c(C)c1	0.511	0.3	0.483	–	–	–
Fc1ccc([C@@H]2CCNC[C@H]2COc2ccc3c(c2)OCO3)cc1 [PAROXETINE]	0.0532	1.78	0.101	–	–	–
N#C[C@@]1(NC(=O)[C@@H](N)Cc2cccs2)C[C@@H]1c1ccccc1	0.344	1.3	0.46	–	–	–
C[C@@H]1CN(c2ccc3c(n2)NC(=O)CO3)[C@H](c2ccccc2)CO1	0.0928	2.75	0.0633	–	–	–
Clc1ccc2c(c1)C(N1CCNCC1)=Nc1ccccc1O2 [AMOXAPINE]	0.101	2.28	0.11	–	–	–
Cc1ccccc1CN1CCC(N2CCC(n3c(=O)[nH]c4ccccc43)CC2)CC1	0.299	–	–	2.68	0.355	–
CN(C)CCOc1cc(NS(=O)(=O)c2c(Cl)cc(C(F)(F)F)cc2Cl)ccc1Cl [SB611812]	0.0024	2.99	0.0029	–	–	–
COc1ccccc1O[C@@H](c1ccccc1)[C@@H]1CNCCO1	0.768	0.9	0.309	–	–	–
CCOC(=O)Nc1ccc(NCc2ccc(F)cc2)cc1N [EZOGABINE]	0.201	–	–	–	0.139	–
Cc1cc2c(s1)Nc1ccccc1N=C2N1CCN(C)CC1 [OLANZAPINE]	0.124	–	–	2.19	0.107	–
CN(C(=O)Cc1ccc(-n2cnnn2)cc1)C1CCN(Cc2ccc(C(F)(F)F)cc2)CC1	0.0606	–	0.0872	–	–	17.8 (≈ 8.16 µg/mL)
Cn1cc[nH]c1=S [METHIMAZOLE]	0.814	-0.42	0.81	–	–	–

SMILES	fraction unbound at 5 h (in vitro [1])	logD (physchem [2]; pH 7.4, LogD7.4)	fraction unbound at 5 h (in vitro [3]; PPB)	logD (physchem [2]; pH 7.4)	fraction unbound at 5 h (in vitro [3])	solubility thermodynamic (physchem [4]) [µM]
CNCCCC12CCC(c3ccccc31)c1ccccc12 [MAPROTILINE]	0.0784	0.89	0.126	–	–	–
O=C(CCCN1CC[Si](O)(c2cccc(C(F)(F)F)c2)CC1)c1ccc(F)cc1	0.0447	–	0.0409	–	–	–
CCc1nc(N)nc(N)c1-c1ccc(Cl)cc1 [PYRIMETHAMINE]	0.069	2.31	0.0736	–	–	–
CC(C)Oc1cc(Nc2nc(N[C@@H](C)c3ccc(F)cc3)nc(NC(CO)CO)c2Cl)n[nH]1	0.0428	–	0.0358	–	–	–
CCOC(=O)Nc1ccc(NCc2ccc(F)cc2)nc1N [FLUPIRTINE]	0.22	2.22	0.16	–	–	–
O=C(NCc1ccc(OC(F)(F)F)cc1)C1c2ccccc2C(=O)N1C1CCOCC1 (centres undefined)	0.132	–	0.0948	–	–	83.2 (≈ 36.1 µg/mL)
Cn1c(-c2cc(=O)c(O)c[nH]2)nn(S(=O)(=O)NC(=O)N2C[C@H](NC(=O)/C(=N\OC(C)(C)C(=O)O)c3csc(N)n3)C2=O)c1=O	0.0149	–	0.0447	–	–	–
CC(C)(C)[C@@H](O)C(=O)N1CCC[C@H]1C(=O)NCc1cc(Cl)ccc1CN	0.5	–	0.58	–	–	–
Cc1nn(-c2ccccc2)c(NS(=O)(=O)C2CCCCC2)c1C(=O)N[C@@H](C)C(C)(C)C	0.0163	1.75	0.0149	–	–	398 (≈ 178 µg/mL)
Cc1nc(C(F)F)c(C(N)=O)nc1-c1ccc([C@H]2CC[C@H](CC(=O)O)CC2)cc1	0.0383	–	0.0544	–	–	–
O=C(O)c1cccnc1 [NIACIN]	0.546	–	0.552	–	–	–
CC1(C)CNC(=O)c2sc(N3CCOCC3)nc2C1	0.517	1.29	0.701	–	–	251 (≈ 70.7 µg/mL)
O=C(CCCN1CC[Si](O)(c2ccc(Cl)cc2)CC1)c1ccc(F)cc1	0.0544	–	0.0544	–	–	–
NC(=O)c1cncc(-c2ccc([C@H]3CC[C@H](CCO)CC3)cc2)n1	0.013	–	0.028	–	–	–
COc1ccccc1CN(C(C)=O)c1cnccc1Oc1ccccc1	0.101	3	0.069	–	–	–
O=C1Cc2cc(CCN3CCN(c4nsc5ccccc45)CC3)c(Cl)cc2N1 [ZIPRASIDONE]	0.003	–	0.001	–	–	–
C[C@H]([C@H](O)c1ccc(O)cc1)N1CCC(O)(c2ccccc2)CC1	0.608	0.91	0.681	–	–	–
O=C(NCc1ccc(F)c(C(F)(F)F)c1)C1c2ccccc2C(=O)N1CCc1ncc(F)cn1 (centres undefined)	0.129	–	0.0477	–	–	–
Cc1ccc(Sc2ccccc2CN(C)C)c(N)c1	0.0928	2.6	0.11	–	–	–
CC(O)(C(=O)Nc1ccc(S(=O)(=O)N2CCOCC2)cc1)C(F)(F)F (centres undefined)	0.151	–	0.371	–	–	–
COc1cnc(-c2cccc(F)c2C(F)(F)CNC(=O)c2ccc(COCC(F)(F)F)nc2)cn1	0.0457	–	0.0328	–	–	–
N#Cc1cc(S(=O)(=O)Nc2ncns2)ccc1Oc1ccc(C(F)(F)F)cc1-c1ccnnc1	0.0209	–	0.0059	–	–	–

SMILES	fraction unbound at 5 h (in vitro [1])	logD (physchem [2]; pH 7.4, LogD7.4)	fraction unbound at 5 h (in vitro [3]; PPB)	logD (physchem [2]; pH 7.4)	fraction unbound at 5 h (in vitro [3])	solubility thermodynamic (physchem [4]) [µM]
Cc1cc(I)cc2c1NC(C(=O)O)C1CC=CC21 (centres undefined)	0.007	–	0.002	–	–	–
COC[C@@H](O)Cn1c(=O)cnn(-c2ccc(Cl)c(C(=O)NCC3(O)CCCCCC3)c2)c1=O	0.608	1.44	0.586	–	–	–
Cc1onc(-c2c(Cl)cccc2Cl)c1CC(=O)NCc1ccc(OCC(F)(F)F)nc1	0.0457	–	0.009	–	–	–
Cc1nn(-c2ccccc2)nc1C(=O)N[C@@H]1COc2cccc(N3CCN(C)CC3)c2C1	0.0383	–	0.0418	–	–	–
Cc1onc(-c2c(Cl)cccc2Cl)c1NC(=O)OCc1c(F)cccc1Cl	0.003	–	0.002	–	–	–
Cc1ccc(S(=O)(=O)Nc2ccc3nc(C)sc3c2)cc1	0.0053	–	–	–	0.0021	–
O=C(O)CNC(=O)c1ncccc1O	0.24	–	0.232	–	–	–
COc1ccc(NC(=O)c2ccc(C[S+](C)[O-])c3ccccc23)c(C(=O)NCC2CCOCC2)n1 (centres undefined)	0.0437	–	–	–	0.0544	–
O=C(NCc1ccc(OC(F)(F)F)cc1)C1c2ccccc2C(=O)N1C[C@@H]1CCCO1 (some centres undefined)	0.0606	–	0.0358	–	–	–
O=c1cc(Cn2c(C3CCC3)nc3nccnc32)c2ccc(F)c(F)c2[nH]1	0.16	–	0.201	–	–	–
O=C(NCc1ccc(OC(F)(F)F)cc1)C1c2ccccc2C(=O)N1CCc1ncc(F)cn1 (centres undefined)	0.0928	–	0.0477	–	–	–
COc1ccc(-c2c(C(=O)N3CCC[C@H]3CO)cc3cccnn23)cc1	0.262	–	0.11	–	–	–
Cc1cnc(-c2c(F)ccc(F)c2CCNC(=O)c2ccc(COCC(F)(F)F)nc2)cn1	0.28	–	0.0801	–	–	–
Cc1nc(C(C)C)c(C(N)=O)nc1-c1ccc([C@H]2CC[C@H](CC(=O)O)CC2)cc1	0.0119	–	0.0262	–	–	–
Cc1ccc(NC(=O)Nc2nnc(-c3ccncc3)s2)cc1	0.0064	–	0.0061	–	–	–
CCN(CCO)C(=O)c1oc2cccnc2c1-c1cccc(C(F)(F)F)c1	0.139	–	0.0872	–	–	–
NC(=O)c1cncc(-c2ccc([C@H]3CC[C@H](CC(=O)O)CC3)cc2)n1	0.0063	–	0.035	–	–	–
O=c1cc(N2CCOCC2)nc(NCc2cccc3ccccc23)[nH]1	0.0251	–	0.0321	–	–	–
CC1CN(c2cc(=O)[nH]c(NCc3cccc4ccccc34)n2)CCO1 (centres undefined)	0.024	–	0.013	–	–	–
COc1ncc(-c2c(C)ccc(F)c2CCNC(=O)c2ccc(OCC(F)(F)F)nc2)cn1	0.0437	–	0.002	–	–	–
CC(C)N1C(=O)[C@H](NC(=O)[C@@H](Cc2ccccc2OC(F)(F)F)NC(=O)OC(C)(C)C)CCc2ccccc21	0.003	–	0.003	–	–	5 (≈ 2.75 µg/mL)
